Key:
Assay in all cases: cells
Design in all cases: species or system panel of 482 human cancer cell lines; ATPLite luminescence growth inhibition after treatment, nine-point dilution curve, 482 cancer cell lines, 384-well
Conditions in all cases: 72 h, recommended growth medium
A427_LUNG = tested on: A427_LUNG
Protocol: (§1) Cells were seeded in recommended growth media in black 384-well tissue culture treated plates at 500 cells per well. Cells were equilibrated in assay plates via centrifugation and placed in incubators for 24 h before treatment. […] Treated assay plates were incubated with compounds for 72 h and subsequently were developed for endpoint analysis using ATPLite. Each compound was assessed using a nine-point dilution curve. Cells were defined as sensitive to a given compound based on GI75 < 2 μM with manual quality control of curve fit. GI75 is defined as a drug concentration that causes a 75% reduction in assay readout relative to dimethyl sulfoxide (DMSO)-treated controls. To identify novel cancer vulnerabilities, we screened a panel of 482 cell lines with a diverse set of metabolic inhibitors. […] Given that SCLC is thought to arise from neuroendocrine cells in the lung[9], we tested the NB-598 sensitivity in a panel of 42 SCLC cell lines. We calculated a quantitative metric of sensitivity for each cell line based on the area under the curve (AUC) of the mu/mu.max curve to more accurately capture the potency and extent of NB-598 effects. […] We categorized the SCLC cell lines as sensitive (5/42), moderate (11/42), and insensitive (26/42) (Fig. 1c and Supplementary Data 2) and focused all subsequent efforts on this indication. […] To further understand the patterns of sensitivity, we conducted RNA sequencing (RNA-Seq; Supplementary Data 3) and proteomic (Supplementary Data 4) characterization of the SCLC panel to identify unbiased expression signatures associated with enhanced NB-598 response (Supplementary Fig. 1 and Supplementary Fig. 2). Given the growing understanding that SCLC tumors can be further subdivided based on the status of lineage-defining transcription factors, ASLC1 and NEUROD1, we specifically investigated NB-598 response as the function of ASCL1 and NEUROD1 expression levels. […] To further dissect the NB-598 response within the ASCL1-high/NEUROD-low subset of 25 cell lines, we identified RNA-Seq and proteomics expression signatures associated with NB

BEN_LUNG = tested on: BEN_LUNG
Protocol: as §1

[1] = tested on: CAL27_UPPER_AERODIGESTIVE_TRACT
Protocol: as §1

HCC1588_LUNG = tested on: HCC1588_LUNG
Protocol: as §1

HCT8_LARGE_INTESTINE = tested on: HCT8_LARGE_INTESTINE
Protocol: as §1

[2] = tested on: JVM13_HAEMATOPOIETIC_AND_LYMPHOID_TISSUE
Protocol: as §1

LU139_LUNG = tested on: LU139_LUNG
Protocol: as §1

NCIH1435_LUNG = tested on: NCIH1435_LUNG
Protocol: as §1

NCIH1623_LUNG = tested on: NCIH1623_LUNG
Protocol: as §1

NCIH2106_LUNG = tested on: NCIH2106_LUNG
Protocol: as §1

SKMEL3_SKIN = tested on: SKMEL3_SKIN
Protocol: as §1

SNU16_STOMACH = tested on: SNU16_STOMACH
Protocol: as §1

SNU175_LARGE_INTESTINE = tested on: SNU175_LARGE_INTESTINE
Protocol: as §1

SNU601_STOMACH = tested on: SNU601_STOMACH
Protocol: as §1

SNU620_STOMACH = tested on: SNU620_STOMACH
Protocol: as §1

[3] = tested on: SUDHL6_HAEMATOPOIETIC_AND_LYMPHOID_TISSUE
Protocol: as §1

TE14_OESOPHAGUS = tested on: TE14_OESOPHAGUS
Protocol: as §1

GI50 (HCC1588_LUNG): 5160 nM
GI50 (HCT8_LARGE_INTESTINE): 10700 nM
GI50 (SKMEL3_SKIN): 263 nM
GI50 (SNU16_STOMACH): 27.3 nM
GI50 (SNU175_LARGE_INTESTINE): 243 nM
GI50 (SNU601_STOMACH): 5400 nM
GI50 (SNU620_STOMACH): 1780 nM
GI50 [3]: 78.9 nM
SMILES: CCN(C/C=C/C#CC(C)(C)C)Cc1cccc(OCc2cc(-c3ccsc3)cs2)c1 [NB-598]
GI50 (A427_LUNG): 5.55 nM
GI50 (BEN_LUNG): 21400 nM
GI50 [1]: 12400 nM
GI50 [2]: 9610 nM
GI50 (LU139_LUNG): 32.1 nM
GI50 (NCIH1435_LUNG): 3.11 nM
GI50 (NCIH1623_LUNG): 19.4 nM
GI50 (NCIH2106_LUNG): 12.1 nM
GI50 (TE14_OESOPHAGUS): 164000 nM
